Data from ChEMBL document CHEMBL1125184, “Active conformation of 1,4-dihydropyridine calcium entry blockers. Effect of size of 2-aryl substituent on rotameric equilibria and receptor binding” (J Med Chem, 1991).

Test: Slope was measured from percentage of specific binding with time

Row | Slope | Compound
1 | 1.2 | CCCC(=O)OC.CO/C(O)=C1/C(C)=NCCC1c1ccccc1I (centres undefined)
2 | 1.3 | CCCC(=O)OC.CO/C(O)=C1/C(C)=NCCC1c1ccccc1Br (centres undefined)
3 | 1.4 | CCCC(=O)OC.CO/C(O)=C1/C(C)=NCCC1c1ccccc1Cl (centres undefined)
4 | 1.6 | CCCC(=O)OC.CO/C(O)=C1/C(C)=NCCC1c1ccccc1F (centres undefined)
